Measurements as given in patent US12617831B2 (UNIVERSITE D'ANGERS, priority 2019, dated 2026).

Tests used:
[1] = system: human peripheral blood mononuclear cells; experiment: Human osteoclast formation from peripheral blood mononuclear cells; assay type: cell-based; settings: human PBMC, M-CSF 25 ng/ml + sRANKL 50 ng/ml, 1 nM peptide (FIG. 3)
Description: Human peripheral blood mononuclear cells were isolated from 3 buffy coats obtained at the Etablissement Francais du Sang (Angers, France) as described in Mabilleau and Sabokbar (2009) PLoS One 4:e4173. Blood was diluted 1:1 in α-minimal essential medium (MEM) (Invitrogen, Paisley, UK), layered over Histopaque and centrifuged (700×g) for 20 min. The interface layer was resuspended in MEM then centrifuged (600×g) for a further 10 min after which the resultant cells were resuspended in media supplemented with 10% heat inactivated foetal calf serum (FCS, Invitrogen, Paisley, UK) and counted in a haemocytometer following lysis of red blood cells using a 5% (v/v) acetic acid solution. […] (2011) J Biol Chem 286:3242-3249). After 2 h incubation, cultures were vigorously rinsed in medium to remove non-adherent cells, and then maintained in 1 ml MEM/FCS with 25 ng/ml recombinant human M-CSF, 50 ng/ml recombinant human sRANKL (added at day 7) and various concentrations of gut hormone analogues (added at day 7). Cultures were terminated after 14 days to assess the extent of osteoclast formation (TRAcP staining as described below). All factors were replenished every 2-3 days. […] Cultures were rinsed three times in distilled water and the residual activity was inhibited by 4% NaF for 30 minutes. […] The number of newly generated were assessed using light microscopic examination.

Murine Raw 264.7 cells = assay type: cell-based
Description: Murine Raw 264.7 cells were grown and expanded in propagation medium containing Dulbecco's modified Eagle medium (DMEM-Gibco) supplemented with 10% fetal bovine serum (FBS-Lonza), 100 U/mL penicillin and 100 μg/mL streptomycin (Gibco) in a humidified atmosphere enriched with 5% CO2 at 37° C. The first passage after thawing Raw 264.7 cells was considered as passage 1. Cells were used up to passage 8. […] Cultures were rinsed three times in distilled water and the residual activity was inhibited by 4% NaF (Sigma-Aldrich) for 30 min. Cells were then rinsed in distilled water and allowed to dry. TRAcP positive cells, with more than three nuclei, were identified as osteoclasts. The number of newly generated osteoclasts was assessed using light microscopic examination by a histologist that was blinded to the treatment intervention. […] For each concentration of peptide, the mean, SD and number of events were computed.

human GLP-2r = molecular target: T1, human GLP-2r (Homo sapiens, UniProt O95838); experiment: Cyclic AMP assay (FRET, H74 probe), HEK-293 transfected with human GLP-2r; assay type: cell-based; settings: HEK 293 transfected only with human GLP-2r, 10^-9 M, 30 min (FIG. 17)
T1 construct: host or cells: HEK-293
T1 sequence (O95838 1-553): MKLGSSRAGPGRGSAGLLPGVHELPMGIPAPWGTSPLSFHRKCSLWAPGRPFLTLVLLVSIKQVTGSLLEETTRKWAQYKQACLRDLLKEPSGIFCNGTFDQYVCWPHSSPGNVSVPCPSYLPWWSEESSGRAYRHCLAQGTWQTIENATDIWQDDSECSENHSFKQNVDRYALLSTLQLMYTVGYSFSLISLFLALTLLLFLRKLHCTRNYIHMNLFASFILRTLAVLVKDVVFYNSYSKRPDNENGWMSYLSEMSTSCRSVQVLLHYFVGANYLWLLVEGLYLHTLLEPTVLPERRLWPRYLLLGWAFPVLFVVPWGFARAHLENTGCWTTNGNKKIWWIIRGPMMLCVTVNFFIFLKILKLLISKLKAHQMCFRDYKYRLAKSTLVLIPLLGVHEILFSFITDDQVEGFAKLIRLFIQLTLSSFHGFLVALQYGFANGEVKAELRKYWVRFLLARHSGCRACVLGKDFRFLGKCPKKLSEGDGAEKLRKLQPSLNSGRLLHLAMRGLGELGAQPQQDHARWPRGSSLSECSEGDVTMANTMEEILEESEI
Description: (§1) Human HEK-293 cells were plated at a density of 2×10^5 cells/cm^2 in 4 well microslides (ibidi GmbH, Martinsried, Germany). […] Jalink (Netherland Cancer Institute, Amsterdam, Netherland). […] The image acquisition was performed with a 63 X, 1.4 N.A. oil immersion objective and a Hybrid® detector (Leica) and images were collected after 30 minutes. Donor excitation was made with a 458 nm Ar laser, donor emission was collected between 460-505 nm and acceptor emission between 520-600 nm by setting the SP8 spectrometer accordingly. FRET was expressed as the ratio between donor and acceptor signals.

[2] = system: human GIPr and the human GLP-2r; experiment: Cyclic AMP assay (FRET, H74 probe), HEK-293 co-transfected with human GIPr and human GLP-2r; assay type: cell-based; settings: HEK 293 co-transfected with human GIPr and human GLP-2r, 10^-9 M, 30 min (FIG. 18)
Description: as §1

Murine MC3T3-E1 cells = experiment: Collagen maturity assay in MC3T3-E1 cultures (Example 2); assay type: cell-based; settings: MC3T3-E1 cultures, 200 nM, vs vehicle (FIG. 2)
Description: At confluence, the propagation medium was replaced by the differentiation medium containing αMEM supplemented with 5% FBS, 5% bovine calf serum, 100 U/mL penicillin, 100 μg/mL streptomycin, 50 μg/ml ascorbic acid and various concentrations of analogues. This day was considered as day 1. The differentiation medium was replenished every two days. […] Cultures were rinsed at least six times with milliQ water, fixed in absolute ethanol, scrapped off the culture dish and transferred onto BaF2 windows where they were air-dried. Integrity of the collagen extracellular matrix was verified by comparing the obtained Fourier transform infrared spectrum with those of commercial collagen. Spectral analysis was performed using a Bruker Vertex 70 spectrometer (Bruker optics, Ettlingen, Germany) interfaced with a Bruker Hyperion 3000 infrared microscope equipped with a standard single element Mercury Cadmium Telluride (MCT) detector. Infrared spectra were recorded at a resolution of 4 cm^−1, with an average of 32 scans in transmission mode. Background spectral images were collected under identical conditions from the same BaF2 windows at the beginning and end of each experiment to ensure instrument stability. At least 20 spectra were acquired for each condition and analyzed with a lab-made routine script in Matlab R2016b (The Mathworks, Natick, MA).

[3] = system: MC3T3-E1 subclone 4 cells; assay type: cell-based, murine
Description: Briefly, MC3T3-E1 subclone 4 cells have been grown and propagated in α-MEM supplemented with 5% fetal bovine serum (FBS), 5% bovine calf serum (BCS), 100 U/mL penicillin, and 100 μg/mL streptomycin in a humidified atmosphere enriched with 5% CO2 at 37° C. […] This day was considered as day 1. The differentiation medium was replenished every two days. […] Cultures were rinsed at least six times with milliQ water, fixed in absolute ethanol, scrapped off the culture dish and transferred onto BaF2 windows where they were air-dried. Integrity of the collagen extracellular matrix was verified by comparing the obtained Fourier transform infrared spectrum with those of commercial collagen. Spectral analysis was performed using a Bruker Vertex 70 spectrometer (Bruker optics, Ettlingen, Germany) interfaced with a Bruker Hyperion 3000 infrared microscope equipped with a standard single element Mercury Cadmium Telluride (MCT) detector. Calibration of the infrared spectrometer is done once a week with a polystyrene film standard (Bruker optics). Infrared spectra were recorded at a resolution of 4 cm^-1, with an average of 32 scans in transmission mode. Background spectral images were collected under identical conditions from the same BaF2 windows at the beginning and end of each experiment to ensure instrument stability. At least 5 spectra were acquired for each condition and analyzed with a lab-made routine script (version 2.0) in Matlab R2016b (The Mathworks, Natick, MA). […] For GIP and GLP-2 dataset, the inventors used the collagen maturity data previously acquired and analyzed. First of all, collagen maturity obtained in control cultures, i.e. in the absence of double GIP/GLP-2 analogues, were averaged and subtracted to the all dataset. […] For each concentration of peptide, the mean, SD and number of events were computed. […] The GraphPad Prism analysis consisted in: […] Statistical Analysis […] Data are represented as mean±SD.

[4] = system: ovariectomy-induced bone loss in mice; experiment: Bone matrix composition by FTIRI at the femur midshaft, ovariectomized mice; assay type: in vivo; settings: OVX mice, cortical bone femur, once 100 μg/kg iv, vs vehicle
Description: At 16 weeks of age, ALZET osmotic pumps (model number 2006, Durect Corp., Cupertino, CA) filled with the below saline or peptide were implanted subcutaneously between the two scapula under general anesthesia in 32 mice. Successful filling of pumps was verified by weighting the pump before and after filling. At 20 weeks of age, ALZET osmotic pumps were replaced by similar pumps to ensure delivery for four new weeks. […] This dose and regimen of zoledronic acid was equivalent to the 5 mg infusion approved for the treatment of post-menopausal osteoporosis in humans. After three-point bending experiments, femurs were embedded undecalcified in pMMA at 4° C. One-micrometer cross-sectional sections of the midshaft femur were sandwiched between BaF2 optical windows and Fourier transform infrared imaging (FTIRI) assessment was performed in the posterior quadrant. FTIRI was performed with a vertex 70 spectrometer (Bruker, Ettlingen, Germany) interfaced with a Hyperion 3000 microscope and a focal plane array detector (64×64 pixels) covering a field of view of 180×180 μm. Nine field-of-view were stitched together to allow sufficient bone to be analyzed. Sections were scanned with a spectral resolution of 8 cm^-1 (spectral region 900-2000 cm^-1). Each spectrum was corrected for Mie scattering with the […]5 algorithm (kind gift of Prof Peter Gardner, University of Manchester, UK) prior to be subjected to pMMA subtraction. Evaluation of spectral images was done with a lab-made routine script in Matlab R2016b (The Mathworks, Natick, MA) as described in Aguado et al. (2017) Calcif Tissue Int 100:332-340. FTIR bone parameters ([…] (2012) Methods Mol Biol 816:517-525) calculated were: (1) phosphate/amide ratio (area of v1, v3 phosphate/area amide1); (2) acid phosphate content (intensity ratio 1127 cm^-1/1096 cm^-1) (Spevak et al. (2013) Calcif Tissue Int 92:418-428); (3) mineral crystallinity (intensity ratio 1030 cm^-1/1020 cm^-1), reflecting crystal size and perfection; […] (2001) J Bone Miner Res 16:893-900). For each of the compositional parameters, the mean and full width at half maximum of the pixel distribution (excluding the zero background values) were computed and represented as mean and heterogeneity.

[5] = system: ovariectomy-induced bone loss in mice; experiment: Trabecular bone microarchitecture, fifth lumbar vertebra, ovariectomized mice; assay type: in vivo; settings: OVX mice, L5, once 100 μg/kg iv, vs vehicle
Description: At 16 weeks of age, ALZET osmotic pumps (model number 2006, Durect Corp., Cupertino, CA) filled with the below saline or peptide were implanted subcutaneously between the two scapula under general anesthesia in 32 mice. Successful filling of pumps was verified by weighting the pump before and after filling. At 20 weeks of age, ALZET osmotic pumps were replaced by similar pumps to ensure delivery for four new weeks. […] This dose and regimen of zoledronic acid was equivalent to the 5 mg infusion approved for the treatment of post-menopausal osteoporosis in humans. Analyses of vertebral bodies of the fifth lumbar vertebra (L5) were performed with a Nanotom nanotomograph (Phoenix, GE, USA) operated at 85 kV, 220 μA, 1000 ms integration time. The isotropic pixel size was fixed at 4 μm, the rotation step at 0.25° and exposure was done with a 0.1 mm copper filter. Each 3D reconstruction image dataset was binarized using global thresholding. Trabecular volume of interest was computerized on coronal sections of the L5 vertebral body. Trabecular VOI was spread over the entire vertebral body excluding the first and last 80 μm from the anterior and posterior cortical wall. All microCT/NanoCT parameters were determined according to guidelines and nomenclature proposed by the American Society for Bone and Mineral Research (Bouxsein et al., 2010).

EC50 (Murine Raw 264.7 cells)	intracellular levels of cAMP (human GLP-2r)	EC50 [3]	SMILES	reduction in osteoclast formation [1]	IC50 computed from curve fitting of osteoclastogenesis vs. peptide concentration (Murine Raw 264.7 cells; Raw 264.7, RANKL 10 ng/ml, 110 h, * values determined from previous experiments, in pM)	Emax, maximum inhibitory effect on osteoclastogenesis (Murine Raw 264.7 cells; Raw 264.7, * data obtained in previous experiments)	intracellular levels of cAMP [2]	increase in collagen maturity (Murine MC3T3-E1 cells)	Emax for dose-effect curves on collagen maturity ([3]; MC3T3-E1, day 14)	augmentation of mineral crystallinity heterogeneity [4]	increase in trabecular bone mass (BV/TV) [5]	increase in trabecular number [5]
32.2 pM	increased intracellular levels of cAMP	63 ± 42 pM	CC[C@H](C)[C@H](NC(=O)[C@H](Cc1ccccc1)NC(=O)[C@H](CC(=O)O)NC(=O)[C@H](CCCNC(=N)N)NC(=O)[C@H](C)NC(=O)[C@H](C)NC(=O)[C@H](CC(C)C)NC(=O)[C@H](CC(N)=O)NC(=O)[C@H](CC(=O)O)NC(=O)[C@H](CC(C)C)NC(=O)[C@@H](NC(=O)[C@@H](NC(=O)[C@H](CC(N)=O)NC(=O)[C@H](CCSC)NC(=O)[C@H](CCC(=O)O)NC(=O)[C@H](CC(=O)O)NC(=O)[C@H](CO)NC(=O)[C@H](Cc1ccccc1)NC(=O)[C@H](CO)NC(=O)CNC(=O)[C@H](CC(=O)O)NC(=O)CNC(=O)[C@@H](N)Cc1c[nH]cn1)[C@@H](C)O)[C@@H](C)CC)C(=O)N[C@@H](CC(N)=O)C(=O)N[C@@H](Cc1c[nH]c2ccccc12)C(=O)N[C@@H](CC(C)C)C(=O)N[C@H](C(=O)N[C@@H](CCC(N)=O)C(=O)N[C@H](C(=O)N[C@@H](CCCCN)C(=O)N[C@H](C(=O)N[C@H](C(=O)N[C@@H](CC(=O)O)C(=O)O)[C@@H](C)O)[C@@H](C)CC)[C@@H](C)O)[C@@H](C)CC [[Gly^2]GLP-2]	34%	32.2*	68.12* %	increased intracellular levels of cAMP	~111%	119.3%			
			O=P(O)(O)C(O)(Cn1ccnc1)P(=O)(O)O [zoledronic acid]							21%	15%	12%
